Reference: the supplement of paper PMC10307832

Assays:
Experiment in all cases: relative viability (nuclei count vs DMSO), 5 days (fraction); higher = more cells survive
[1] = compound: CN[C@@H]1C[C@H]2O[C@@](C)([C@@H]1OC)n1c3ccccc3c3c4c(c5c6ccccc6n2c5c31)C(=O)NC4 [Staurosporine] + Cc1nc(NC(=O)N2CCC[C@H]2C(N)=O)sc1-c1ccnc(C(C)(C)C(F)(F)F)c1 [Alpelisib] (partner 2 µM)
Summary of the method: (§1)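 Lung cancer cell lines in 1536-well plates were dosed by pin tool the day after seeding, either with one drug alone or with a fixed anchor-drug dose plus five library-drug doses (not always all listed) in √10 steps. After 5 days, cells were fixed and their nuclei stained in one step (final 0.05% Triton X-100, 1% formaldehyde, 1 ug/ml Hoechst), then counted on 4× images. Relative viability is the nuclei count in treated wells divided by that in vehicle wells. Values are medians of duplicate plates.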

Sulindac + Pictilisib = compound: CC1=C(CC(=O)O)c2cc(F)ccc2/C1=C\c1ccc([S+](C)[O-])cc1 [Sulindac] + CS(=O)(=O)N1CCN(Cc2cc3nc(-c4cccc5[nH]ncc45)nc(N4CCOCC4)c3s2)CC1 [Pictilisib] (partner 1 µM)
Summary of the method: as §1

[2] = compound: O=c1[nH]cc(F)c(=O)[nH]1 [5-Fluorouracil] + N=C(N)NC(=N)NCCc1ccccc1 [Phenformin] (partner 250 µM)
Summary of the method: as §1

Sulindac + Trametinib = compound: CC1=C(CC(=O)O)c2cc(F)ccc2/C1=C\c1ccc([S+](C)[O-])cc1 [Sulindac] + CC(=O)Nc1cccc(-n2c(=O)n(C3CC3)c(=O)c3c(Nc4ccc(I)cc4F)n(C)c(=O)c(C)c32)c1 [Trametinib] (partner 0.02 µM)
Summary of the method: as §1

Cell Line | relative viability ([1]; first compound 0.005 µM) | relative viability ([1]; first compound 0.05 µM) | relative viability ([1]; first compound 0.1581 µM) | relative viability ([1]; first compound 0.5 µM) | relative viability (Sulindac + Pictilisib; first compound 0.08 µM) | relative viability (Sulindac + Pictilisib; first compound 0.253 µM) | relative viability (Sulindac + Pictilisib; first compound 2.53 µM) | relative viability (Sulindac + Pictilisib; first compound 8 µM) | relative viability ([2]; first compound 0.02 µM) | relative viability ([2]; first compound 0.2 µM) | relative viability ([2]; first compound 0.6325 µM) | relative viability ([2]; first compound 2 µM) | relative viability (Sulindac + Trametinib; first compound 0.08 µM) | relative viability (Sulindac + Trametinib; first compound 0.253 µM) | relative viability (Sulindac + Trametinib; first compound 2.53 µM) | relative viability (Sulindac + Trametinib; first compound 8 µM) | relative viability ([1]; first compound 0.01581 µM) | relative viability (Sulindac + Pictilisib; first compound 0.8 µM) | relative viability (Sulindac + Trametinib; first compound 0.8 µM)
HCC-366 | 0.363 | 0.0965 | 0.0438 | 0.0105 | 0.149 | 0.13 | 0.0966 | 0.0889 | 0.562 | 0.622 | 0.424 | 0.0966 | 0.359 | 0.384 | 0.357 | 0.396 | – | – | –
HCC-827 | 1.1 | 0.748 | – | 0.431 | 0.922 | 1.17 | 0.88 | 1.06 | 0.363 | 0.37 | 0.414 | 0.29 | 0.525 | 0.571 | 0.489 | 0.506 | 0.852 | 0.823 | 0.526
HOP-62 | 1.25 | 0.115 | 0.0862 | 0.138 | 1.01 | 0.864 | 0.758 | 0.978 | 0.617 | 0.728 | 0.636 | 0.644 | 0.411 | 0.404 | 0.411 | 0.388 | 0.816 | 0.831 | 0.34
IA-LM | 0.577 | 0.281 | 0.211 | 0.0757 | 0.439 | 0.371 | 0.352 | 0.419 | – | – | – | – | – | – | – | – | – | – | –
LC-2-ad | 0.178 | 0.237 | 0.0434 | 0.0442 | 0.63 | 0.533 | 0.416 | 0.445 | 0.554 | 0.512 | 0.407 | 0.385 | 1.02 | 1.01 | 0.928 | 0.915 | 0.338 | 0.34 | 0.769
LCLC-97TM1 | 0.205 | 0.166 | 0.185 | 0.179 | 0.198 | 0.214 | – | 0.187 | 0.386 | 0.472 | 0.443 | 0.407 | 0.25 | 0.228 | 0.171 | 0.214 | 0.18 | 0.18 | 0.213
LCLC-103H | 1.07 | 0.365 | 0.221 | 0.178 | 0.757 | 0.612 | 0.642 | 0.748 | 0.339 | 0.327 | 0.258 | 0.249 | 0.715 | 0.722 | 0.67 | 0.694 | 0.513 | 0.545 | 0.692
LK-2 | 1.24 | 0.451 | 0.191 | 0.0868 | 0.551 | 0.675 | – | 0.558 | 0.597 | 0.582 | 0.57 | 0.381 | 0.854 | 0.746 | 0.617 | 0.944 | 1.18 | – | 0.705
LOU-NH91 | 0.718 | 0.457 | 0.304 | 0.305 | 0.584 | 0.514 | 0.512 | 0.574 | 0.731 | 0.858 | 0.589 | 0.298 | 0.771 | 0.826 | 0.785 | 0.836 | 0.575 | 0.536 | 0.687
LU99A | 0.341 | 0.19 | 0.105 | 0.118 | 0.33 | 0.31 | 0.267 | 0.344 | 0.905 | 0.786 | 0.738 | 0.586 | 0.587 | 0.585 | 0.503 | 0.687 | 0.153 | 0.301 | 0.482
LXF-289 | 0.902 | 0.197 | 0.0563 | 0.0673 | 0.955 | 0.796 | 0.823 | 0.848 | 0.507 | 0.428 | 0.332 | 0.297 | 0.745 | 0.713 | 0.695 | 0.686 | – | 0.769 | 0.666
NCI-H23 | 0.437 | 0.218 | 0.206 | 0.131 | 0.423 | 0.525 | 0.536 | 0.517 | 0.686 | 0.897 | 0.438 | 0.298 | 0.39 | 0.403 | 0.364 | 0.356 | 0.317 | 0.387 | 0.333
NCI-H322M | 0.74 | 0.725 | 0.446 | 0.328 | 0.579 | 0.508 | 0.545 | 0.539 | 0.857 | 0.743 | 0.724 | 0.541 | 0.474 | 0.506 | 0.5 | 0.603 | 0.723 | 0.419 | 0.48
NCI-H522 | – | – | – | – | – | – | – | – | 0.584 | 0.637 | 0.682 | 0.678 | 0.628 | 0.75 | 0.747 | 0.734 | – | – | 0.547
NCI-H1299 | 1.13 | 0.237 | 0.205 | 0.196 | 0.671 | 0.9 | 0.778 | 0.878 | – | – | – | – | – | – | – | – | 0.874 | 0.651 | –
NCI-H1563 | 0.813 | 0.63 | 0.53 | 0.489 | 0.609 | 0.662 | 0.65 | 0.622 | 0.713 | 0.611 | 0.641 | 0.646 | – | – | – | – | 0.57 | 0.665 | –
NCI-H1623 | – | – | – | – | – | – | – | – | 0.45 | 0.582 | 0.364 | 0.335 | – | – | – | – | – | – | –
NCI-H1648 | – | – | – | – | – | – | – | – | – | – | – | – | 0.379 | 0.414 | 0.473 | 0.422 | – | – | –
NCI-H1650 | – | – | – | – | 0.64 | 0.676 | 0.555 | 0.719 | 0.396 | 0.444 | 0.273 | 0.279 | 0.599 | 0.794 | 0.491 | 0.766 | – | 0.413 | 0.445
NCI-H1703 | 0.219 | 0.142 | 0.139 | 0.102 | 0.229 | 0.238 | 0.229 | 0.291 | – | – | – | – | – | – | – | – | 0.167 | 0.219 | –
NCI-H2342 | – | – | – | – | – | – | – | – | 0.619 | 0.72 | 0.559 | 0.635 | 0.829 | 0.81 | 0.826 | 0.825 | – | – | 0.721
SW 900 | – | – | – | – | – | – | – | – | 0.505 | 0.618 | 0.498 | 0.465 | 0.847 | 0.982 | – | 0.945 | – | – | –
